Data set [1] can be described thus: LC/MS-MS quantification in mouse blood after topical application. The format is in vivo.
Data set [2] relates to basal cell carcinoma (BCC), squamous cell carcinoma (SCC) and melanoma tumors. The data set is described as follows: In vivo fluorescence imaging of skin tumors after systemic (retro-orbital) injection of the probe. Also noted: species or system mouse. An excerpt: Imaging agents based on the well-characterized COX-2 inhibitors can be used for the early detection of skin cancer and help define tumor margins. […] A continuing problem is the detection of small tumors that are indistinguishable over non-specific background fluorescence.
FIGS. 1A and 1B illustrate in vivo detection of Fluorocoxib accumulation in Basal Cell Carcinoma Imaging with CRi Maestro. FIG. 1A: Histology and identification of tumor cell; FIG. 1B: from lesion 3 (arrows).
However, for skin or other epithelial applications, as well as to improve on its TBR on systemic administration, it is desirable to limit the non-specific signal. To overcome this undesirable background fluorescent signal that can mask signals from smaller tumors and other sites having low-level expression of COX-2, the present disclosure provides molecular probes wherein the fluorescent COX-2-specific construct comprises a fluorescent quencher linked to the probe by a cleavable linker. Upon entry into a cell and binding of the Fluorocoxib to COX-2, the quencher can be displaced from the vicinity of the fluorophore by, for example, a cytoplasmic peptidase cleavage of the cleavable linker, allowing the generation of a detectable fluorescent signal. […]
The capability of this probe to detect early stage skin tumors that cannot be detected by visual inspection was investigated. […]

This is an account of results in US9283289B2, “Self-quenching activatable COX-2-specific multi-modal molecular probes for diagnosis of cancers, inflammation, and immune system disorders” (The Board of Trustees of the Leland Stanford Junior …, priority 2012, dated 2016).

Regarding 5-Rox-D-indomethacin [Fluorocoxib A], in data set [1], the “level in mouse blood” value is reported as “undetectable”. Moreover, in data set [2] (genetically engineered mouse model of non-melanoma skin cancer, systemic administration, 1 mg/kg), the “size of small tumors visualized” value was “approximately 100 μm”. Moreover, the “fluorescence detection in tumor areas” value in data set [2] (three hours after retro-orbital injection, in vivo imaging and tissue histology) is “selectively detected”.
